# Experimental data: PubChem BioAssay AID2060912 (Molecular Pharmacology Branch, DTP, NCI, 2025)
# Tested on: HUVEC/MSC spheroids viability
# Assay: Human HUVEC/MSC cell line growth inhibition [KRAS2];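 on viability, T/C: percent of DMSO vehicle control luminescence so 100% = untreated viability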
# Details: for IC50: curve of first compound; for viability, T/C: stronger effect = lower value
# Outline: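 HUVEC + hMSC stromal spheroids only, no malignant cells; 37 °C, 5% CO2. Drugs singly and in pairs, half-log series down from clinical Cmax (max 10 microM if Cmax undetermined).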
# [1] = second compound 0.00949 µM, first compound 0.0316 µM
# [2] = second compound 0.00949 µM, first compound 0.1 µM
# [3] = second compound 0.00949 µM, first compound 0.316 µM
# [4] = second compound 0.00949 µM, first compound 1 µM
# [5] = second compound 0.00949 µM, first compound 3.16 µM
# [6] = second compound 0.00949 µM, first compound 10 µM
# [7] = second compound 0.03 µM, first compound 0.0316 µM
# [8] = second compound 0.03 µM, first compound 0.1 µM
# [9] = second compound 0.03 µM, first compound 0.316 µM
# [10] = second compound 0.03 µM, first compound 1 µM
# [11] = second compound 0.03 µM, first compound 3.16 µM
# [12] = second compound 0.03 µM, first compound 10 µM
# [13] = second compound 0.0949 µM, first compound 0.0316 µM
# [14] = second compound 0.0949 µM, first compound 0.1 µM
# [15] = second compound 0.0949 µM, first compound 0.316 µM
# [16] = second compound 0.0949 µM, first compound 1 µM
# [17] = second compound 0.0949 µM, first compound 3.16 µM
# [18] = second compound 0.0949 µM, first compound 10 µM
# [19] = second compound 0.3 µM, first compound 0.0316 µM
# [20] = second compound 0.3 µM, first compound 0.1 µM
# [21] = second compound 0.3 µM, first compound 0.316 µM
# [22] = second compound 0.3 µM, first compound 1 µM
# [23] = second compound 0.3 µM, first compound 3.16 µM
# [24] = second compound 0.3 µM, first compound 10 µM
# [25] = second compound 0.949 µM, first compound 0.0316 µM
# [26] = second compound 0.949 µM, first compound 0.1 µM
# [27] = second compound 0.949 µM, first compound 0.316 µM
# [28] = second compound 0.949 µM, first compound 1 µM
# [29] = second compound 0.949 µM, first compound 3.16 µM
# [30] = second compound 0.949 µM, first compound 10 µM
# [31] = second compound 3 µM, first compound 0.0316 µM
# [32] = second compound 3 µM, first compound 0.1 µM
# [33] = second compound 3 µM, first compound 0.316 µM
# [34] = second compound 3 µM, first compound 1 µM
# [35] = second compound 3 µM, first compound 3.16 µM
# [36] = second compound 3 µM, first compound 10 µM
structure (smiles),measurement,setting,value
CC(=O)Nc1cccc(-n2c(=O)n(C3CC3)c(=O)c3c(Nc4ccc(I)cc4F)n(C)c(=O)c(C)c32)c1 + C=CC(=O)N1CCN(c2nc(OCC3CCCN3C)nc3c2CCN(c2cccc4cccc(C)c24)C3)CC1CC#N,IC50,second compound 0.00949 µM,0.0189 µM
same,IC50,second compound 0.03 µM,0.0173 µM
same,IC50,second compound 0.0949 µM,0.0154 µM
same,IC50,second compound 0.3 µM,0.0134 µM
same,IC50,second compound 0.949 µM,0.0153 µM
same,IC50,second compound 3 µM,0.00185 µM
same,"viability, T/C","second compound 0.00949 µM, first compound 94.9 pM",95.3%
same,"viability, T/C","second compound 0.00949 µM, first compound 0.0003 µM",129%
same,"viability, T/C","second compound 0.00949 µM, first compound 0.000949 µM",125%
same,"viability, T/C","second compound 0.00949 µM, first compound 0.003 µM",116%
same,"viability, T/C","second compound 0.00949 µM, first compound 0.00949 µM",90.5%
same,"viability, T/C","second compound 0.00949 µM, first compound 0.03 µM",23%
same,"viability, T/C","second compound 0.03 µM, first compound 94.9 pM",104%
same,"viability, T/C","second compound 0.03 µM, first compound 0.0003 µM",116%
same,"viability, T/C","second compound 0.03 µM, first compound 0.000949 µM",112%
same,"viability, T/C","second compound 0.03 µM, first compound 0.003 µM",115%
same,"viability, T/C","second compound 0.03 µM, first compound 0.00949 µM",83.8%
same,"viability, T/C","second compound 0.03 µM, first compound 0.03 µM",18.9%
same,"viability, T/C","second compound 0.0949 µM, first compound 94.9 pM",97.7%
same,"viability, T/C","second compound 0.0949 µM, first compound 0.0003 µM",130%
same,"viability, T/C","second compound 0.0949 µM, first compound 0.000949 µM",133%
same,"viability, T/C","second compound 0.0949 µM, first compound 0.003 µM",94.9%
same,"viability, T/C","second compound 0.0949 µM, first compound 0.00949 µM",71.5%
same,"viability, T/C","second compound 0.0949 µM, first compound 0.03 µM",23.5%
same,"viability, T/C","second compound 0.3 µM, first compound 94.9 pM",67%
same,"viability, T/C","second compound 0.3 µM, first compound 0.0003 µM",98.3%
same,"viability, T/C","second compound 0.3 µM, first compound 0.000949 µM",114%
same,"viability, T/C","second compound 0.3 µM, first compound 0.003 µM",97.8%
same,"viability, T/C","second compound 0.3 µM, first compound 0.00949 µM",63.6%
same,"viability, T/C","second compound 0.3 µM, first compound 0.03 µM",18.6%
same,"viability, T/C","second compound 0.949 µM, first compound 94.9 pM",84.9%
same,"viability, T/C","second compound 0.949 µM, first compound 0.0003 µM",91.8%
same,"viability, T/C","second compound 0.949 µM, first compound 0.000949 µM",108%
same,"viability, T/C","second compound 0.949 µM, first compound 0.003 µM",86.7%
same,"viability, T/C","second compound 0.949 µM, first compound 0.00949 µM",73.4%
same,"viability, T/C","second compound 0.949 µM, first compound 0.03 µM",17.2%
same,"viability, T/C","second compound 3 µM, first compound 94.9 pM",96.2%
same,"viability, T/C","second compound 3 µM, first compound 0.0003 µM",105%
same,"viability, T/C","second compound 3 µM, first compound 0.000949 µM",73.8%
same,"viability, T/C","second compound 3 µM, first compound 0.003 µM",32.6%
same,"viability, T/C","second compound 3 µM, first compound 0.00949 µM",2.04%
same,"viability, T/C","second compound 3 µM, first compound 0.03 µM",1.27%
COc1cc(Nc2ncc3c(n2)-c2ccc(Cl)cc2C(c2c(F)cccc2OC)=NC3)ccc1C(=O)O + C=CC(=O)N1CCN(c2nc(OCC3CCCN3C)nc3c2CCN(c2cccc4cccc(C)c24)C3)CC1CC#N,IC50,second compound 0.00949 µM,> 10 µM
same,IC50,second compound 0.03 µM,> 10 µM
same,IC50,second compound 0.0949 µM,> 10 µM
same,IC50,second compound 0.3 µM,> 10 µM
same,IC50,second compound 0.949 µM,7.03 µM
same,IC50,second compound 3 µM,5.92 µM
same,"viability, T/C",[1],93.2%
same,"viability, T/C",[2],88%
same,"viability, T/C",[3],87.1%
same,"viability, T/C",[4],83.8%
same,"viability, T/C",[5],105%
same,"viability, T/C",[6],66.6%
same,"viability, T/C",[7],77.3%
same,"viability, T/C",[8],86.9%
same,"viability, T/C",[9],86%
same,"viability, T/C",[10],82.9%
same,"viability, T/C",[11],102%
same,"viability, T/C",[12],68.2%
same,"viability, T/C",[13],80.4%
same,"viability, T/C",[14],108%
same,"viability, T/C",[15],98.5%
same,"viability, T/C",[16],74.7%
same,"viability, T/C",[17],81.6%
same,"viability, T/C",[18],61.2%
same,"viability, T/C",[19],79.8%
same,"viability, T/C",[20],79.5%
same,"viability, T/C",[21],76.9%
same,"viability, T/C",[22],91.1%
same,"viability, T/C",[23],87.5%
same,"viability, T/C",[24],69%
same,"viability, T/C",[25],59.9%
same,"viability, T/C",[26],78.9%
same,"viability, T/C",[27],92.3%
same,"viability, T/C",[28],75.8%
same,"viability, T/C",[29],73.2%
same,"viability, T/C",[30],39.7%
same,"viability, T/C",[31],93.4%
same,"viability, T/C",[32],88.5%
same,"viability, T/C",[33],96.4%
same,"viability, T/C",[34],102%
same,"viability, T/C",[35],73.2%
same,"viability, T/C",[36],30.7%
COc1cc2nccc(Oc3ccc(NC(=O)C4(C(=O)Nc5ccc(F)cc5)CC4)cc3)c2cc1OC + C=CC(=O)N1CCN(c2nc(OCC3CCCN3C)nc3c2CCN(c2cccc4cccc(C)c24)C3)CC1CC#N,IC50,second compound 0.00949 µM,4.77 µM
same,IC50,second compound 0.03 µM,5.94 µM
same,IC50,second compound 0.0949 µM,8.74 µM
same,IC50,second compound 0.3 µM,7.29 µM
same,IC50,second compound 0.949 µM,> 10 µM
same,IC50,second compound 3 µM,3.8 µM
same,"viability, T/C",[1],88.1%
same,"viability, T/C",[2],102%
same,"viability, T/C",[3],71.1%
same,"viability, T/C",[4],65.7%
same,"viability, T/C",[5],76.6%
same,"viability, T/C",[6],22%
same,"viability, T/C",[7],70.9%
same,"viability, T/C",[8],80.5%
same,"viability, T/C",[9],77.1%
same,"viability, T/C",[10],59.8%
same,"viability, T/C",[11],77.8%
same,"viability, T/C",[12],30.8%
same,"viability, T/C",[13],82.5%
same,"viability, T/C",[14],78.6%
same,"viability, T/C",[15],74%
same,"viability, T/C",[16],77.4%
same,"viability, T/C",[17],88.1%
same,"viability, T/C",[18],46%
same,"viability, T/C",[19],61.5%
same,"viability, T/C",[20],80.8%
same,"viability, T/C",[21],85.7%
same,"viability, T/C",[22],63.9%
same,"viability, T/C",[23],86.6%
same,"viability, T/C",[24],40.4%
same,"viability, T/C",[25],61.9%
same,"viability, T/C",[26],71.8%
same,"viability, T/C",[27],73.3%
same,"viability, T/C",[28],83%
same,"viability, T/C",[29],75.9%
same,"viability, T/C",[30],38.5%
same,"viability, T/C",[31],75.9%
same,"viability, T/C",[32],80.4%
same,"viability, T/C",[33],92.4%
same,"viability, T/C",[34],84.1%
same,"viability, T/C",[35],59.4%
same,"viability, T/C",[36],0.35%
